# pKd: −log10 of the molar value.
# How the values were obtained:
# Assay in all cases: KINOMEscan competition binding
# [1] = tested on: ABL1 (human), P00519 [E255K]; settings: compound 1.0 µM
# ACVR1 (human) = ACVR1 (human) (UniProt Q04771); settings: compound 1.0 µM
# ACVR1B (human) = ACVR1B (human) (UniProt P36896); settings: compound 1.0 µM
# BMPR1B (human) = BMPR1B (human) (UniProt O00238); settings: compound 1.0 µM
# [2] = tested on: BRAF (human), P15056 [V600E]; settings: compound 1.0 µM
# CAMK1D (human) = CAMK1D (human) (UniProt Q8IU85); settings: compound 1.0 µM
# Sequence of CAMK1D (human) (Q8IU85 whole entry, looked up): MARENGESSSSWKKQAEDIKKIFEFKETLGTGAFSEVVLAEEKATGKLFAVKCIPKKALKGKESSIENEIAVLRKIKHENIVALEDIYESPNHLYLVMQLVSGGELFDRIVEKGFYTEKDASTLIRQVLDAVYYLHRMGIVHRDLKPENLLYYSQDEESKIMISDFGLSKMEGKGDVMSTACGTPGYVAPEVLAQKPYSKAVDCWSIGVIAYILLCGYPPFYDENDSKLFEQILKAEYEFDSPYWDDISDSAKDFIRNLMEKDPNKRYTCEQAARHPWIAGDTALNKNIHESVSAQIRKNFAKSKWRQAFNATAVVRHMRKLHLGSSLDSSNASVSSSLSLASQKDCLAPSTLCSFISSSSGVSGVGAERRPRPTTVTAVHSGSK
# CAMK1G (human) = CAMK1G (human) (UniProt Q96NX5); settings: compound 1.0 µM
# CAMK2A (human) = CAMK2A (human) (UniProt Q9UQM7); settings: compound 1.0 µM
# CAMK2G (human) = CAMK2G (human) (UniProt Q13555); settings: compound 1.0 µM
# CDC2L2 (human) = CDC2L2 (human) (UniProt Q9UQ88); settings: compound 1.0 µM
# CDK2 (human) = CDK2 (human) (UniProt P24941); settings: compound 1.0 µM
# CIT (human) = CIT (human) (UniProt O14578); settings: for kinase still bound, per cent of control: compound 1.0 µM
# Sequence of CIT (human) (O14578 whole entry, looked up): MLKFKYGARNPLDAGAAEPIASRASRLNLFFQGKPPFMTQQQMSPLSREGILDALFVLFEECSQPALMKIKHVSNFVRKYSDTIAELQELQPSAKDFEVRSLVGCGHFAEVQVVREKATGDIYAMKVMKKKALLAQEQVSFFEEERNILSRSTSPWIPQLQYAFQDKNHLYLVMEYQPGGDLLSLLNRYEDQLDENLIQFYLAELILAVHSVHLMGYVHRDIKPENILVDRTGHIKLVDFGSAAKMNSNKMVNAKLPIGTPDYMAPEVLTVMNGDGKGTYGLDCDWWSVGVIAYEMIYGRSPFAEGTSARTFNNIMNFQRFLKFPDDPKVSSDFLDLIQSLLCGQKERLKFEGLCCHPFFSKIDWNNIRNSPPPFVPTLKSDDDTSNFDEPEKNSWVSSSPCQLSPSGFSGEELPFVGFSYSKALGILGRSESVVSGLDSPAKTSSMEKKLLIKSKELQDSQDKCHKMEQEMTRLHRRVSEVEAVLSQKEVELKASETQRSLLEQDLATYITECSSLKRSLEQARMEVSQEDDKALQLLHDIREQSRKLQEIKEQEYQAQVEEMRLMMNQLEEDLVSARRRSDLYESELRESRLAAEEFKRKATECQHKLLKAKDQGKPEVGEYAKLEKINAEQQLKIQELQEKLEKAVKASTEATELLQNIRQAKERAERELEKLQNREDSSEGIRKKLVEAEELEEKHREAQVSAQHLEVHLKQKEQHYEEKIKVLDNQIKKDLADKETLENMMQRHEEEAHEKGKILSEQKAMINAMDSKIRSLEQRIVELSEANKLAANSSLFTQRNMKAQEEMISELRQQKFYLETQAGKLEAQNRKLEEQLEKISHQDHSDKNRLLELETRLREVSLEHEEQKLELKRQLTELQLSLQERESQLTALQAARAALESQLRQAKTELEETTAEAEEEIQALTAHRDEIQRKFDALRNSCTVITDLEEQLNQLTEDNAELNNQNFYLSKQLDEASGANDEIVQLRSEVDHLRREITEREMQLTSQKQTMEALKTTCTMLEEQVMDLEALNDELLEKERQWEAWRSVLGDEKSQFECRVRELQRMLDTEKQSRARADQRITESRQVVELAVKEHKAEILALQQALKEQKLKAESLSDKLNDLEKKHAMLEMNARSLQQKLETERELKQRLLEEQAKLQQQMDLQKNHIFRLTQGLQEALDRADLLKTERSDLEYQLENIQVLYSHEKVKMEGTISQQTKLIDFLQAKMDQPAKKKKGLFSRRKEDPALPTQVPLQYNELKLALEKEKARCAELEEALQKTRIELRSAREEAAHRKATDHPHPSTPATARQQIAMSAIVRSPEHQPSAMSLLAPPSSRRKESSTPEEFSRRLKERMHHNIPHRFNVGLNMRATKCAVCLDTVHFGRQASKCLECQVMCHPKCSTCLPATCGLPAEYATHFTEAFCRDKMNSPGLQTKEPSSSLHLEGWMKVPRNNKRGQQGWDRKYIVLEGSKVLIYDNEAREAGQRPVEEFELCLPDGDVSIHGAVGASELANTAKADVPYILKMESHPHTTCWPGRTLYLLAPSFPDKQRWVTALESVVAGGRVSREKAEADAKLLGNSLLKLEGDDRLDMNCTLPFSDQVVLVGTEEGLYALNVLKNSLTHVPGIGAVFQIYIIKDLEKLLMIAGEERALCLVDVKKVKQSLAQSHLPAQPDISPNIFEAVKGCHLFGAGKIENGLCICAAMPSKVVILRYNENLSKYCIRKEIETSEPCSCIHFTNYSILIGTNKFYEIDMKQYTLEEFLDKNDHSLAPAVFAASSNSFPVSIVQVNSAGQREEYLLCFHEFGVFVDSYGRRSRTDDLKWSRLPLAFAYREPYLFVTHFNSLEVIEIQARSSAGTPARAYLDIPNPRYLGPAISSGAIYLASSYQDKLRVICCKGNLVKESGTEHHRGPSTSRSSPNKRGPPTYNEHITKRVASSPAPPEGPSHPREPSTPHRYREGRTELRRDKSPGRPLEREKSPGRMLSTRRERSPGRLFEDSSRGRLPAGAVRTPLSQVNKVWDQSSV
# CLK1 (human) = CLK1 (human) (UniProt P49759); settings: compound 1.0 µM
# CSNK1D (human) = CSNK1D (human) (UniProt P48730); settings: compound 1.0 µM
# DYRK1B (human) = DYRK1B (human) (UniProt Q9Y463); settings: compound 1.0 µM
# Sequence of DYRK1B (human) (Q9Y463 whole entry, looked up): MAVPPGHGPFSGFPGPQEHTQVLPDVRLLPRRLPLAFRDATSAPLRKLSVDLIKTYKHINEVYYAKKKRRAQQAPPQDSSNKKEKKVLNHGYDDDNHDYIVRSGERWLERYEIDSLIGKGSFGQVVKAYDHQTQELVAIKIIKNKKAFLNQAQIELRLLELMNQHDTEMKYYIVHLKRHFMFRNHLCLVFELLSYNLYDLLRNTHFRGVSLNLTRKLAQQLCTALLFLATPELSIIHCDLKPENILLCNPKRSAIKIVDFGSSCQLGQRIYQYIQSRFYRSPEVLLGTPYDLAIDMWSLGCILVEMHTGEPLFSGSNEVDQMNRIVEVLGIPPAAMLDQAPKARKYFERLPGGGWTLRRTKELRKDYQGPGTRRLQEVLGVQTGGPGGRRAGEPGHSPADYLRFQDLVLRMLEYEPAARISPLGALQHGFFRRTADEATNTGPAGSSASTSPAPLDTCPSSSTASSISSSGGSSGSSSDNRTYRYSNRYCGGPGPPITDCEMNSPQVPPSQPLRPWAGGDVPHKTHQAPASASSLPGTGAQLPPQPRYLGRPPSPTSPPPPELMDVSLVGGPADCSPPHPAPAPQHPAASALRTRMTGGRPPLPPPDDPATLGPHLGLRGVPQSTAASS
# [3] = tested on: EIF2AK4 KD2 (human), Q9P2K8 [S808G]; settings: compound 1.0 µM
# EPHA4 (human) = EPHA4 (human) (UniProt P54764); settings: compound 1.0 µM
# EPHA8 (human) = EPHA8 (human) (UniProt P29322); settings: compound 1.0 µM
# EPHB3 (human) = EPHB3 (human) (UniProt P54753); settings: compound 1.0 µM
# EPHB6 (human) = EPHB6 (human) (UniProt O15197); settings: compound 1.0 µM
# ERBB2 (human) = ERBB2 (human) (UniProt P04626); settings: for kinase still bound, per cent of control: compound 1.0 µM
# Sequence of ERBB2 (human) (P04626 whole entry, looked up): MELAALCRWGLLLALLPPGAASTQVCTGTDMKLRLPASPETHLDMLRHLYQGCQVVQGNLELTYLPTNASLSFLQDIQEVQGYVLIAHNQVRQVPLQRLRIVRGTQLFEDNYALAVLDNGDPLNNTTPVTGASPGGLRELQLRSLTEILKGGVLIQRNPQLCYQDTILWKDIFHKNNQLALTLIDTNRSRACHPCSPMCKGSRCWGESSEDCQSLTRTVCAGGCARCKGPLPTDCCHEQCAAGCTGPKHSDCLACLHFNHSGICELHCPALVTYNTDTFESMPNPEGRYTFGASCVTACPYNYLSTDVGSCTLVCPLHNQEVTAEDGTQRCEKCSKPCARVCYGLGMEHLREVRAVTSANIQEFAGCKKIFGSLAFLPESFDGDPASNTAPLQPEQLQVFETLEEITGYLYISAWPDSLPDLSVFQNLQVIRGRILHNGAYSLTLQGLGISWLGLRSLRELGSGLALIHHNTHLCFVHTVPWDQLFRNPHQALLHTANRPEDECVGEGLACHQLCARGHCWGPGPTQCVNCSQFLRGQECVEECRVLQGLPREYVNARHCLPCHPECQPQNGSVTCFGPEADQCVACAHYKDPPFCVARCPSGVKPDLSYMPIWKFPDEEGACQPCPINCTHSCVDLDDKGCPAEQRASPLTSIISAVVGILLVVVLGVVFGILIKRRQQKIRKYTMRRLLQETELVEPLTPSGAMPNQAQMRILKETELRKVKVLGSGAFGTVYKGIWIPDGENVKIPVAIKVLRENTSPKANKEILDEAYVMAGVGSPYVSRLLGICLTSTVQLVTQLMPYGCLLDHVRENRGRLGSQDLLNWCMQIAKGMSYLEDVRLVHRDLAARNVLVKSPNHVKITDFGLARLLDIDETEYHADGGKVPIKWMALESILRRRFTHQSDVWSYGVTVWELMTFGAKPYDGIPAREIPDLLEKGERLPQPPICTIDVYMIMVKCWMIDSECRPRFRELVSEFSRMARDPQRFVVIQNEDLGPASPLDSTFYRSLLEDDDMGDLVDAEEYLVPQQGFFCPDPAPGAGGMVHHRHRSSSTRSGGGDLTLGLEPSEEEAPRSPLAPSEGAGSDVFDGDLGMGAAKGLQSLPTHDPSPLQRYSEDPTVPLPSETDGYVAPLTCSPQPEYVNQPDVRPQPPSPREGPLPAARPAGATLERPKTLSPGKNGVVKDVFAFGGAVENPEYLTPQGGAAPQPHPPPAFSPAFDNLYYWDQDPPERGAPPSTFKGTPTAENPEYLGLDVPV
# IKBKE (human) = IKBKE (human) (UniProt Q14164); settings: compound 1.0 µM
# IRAK3 (human) = IRAK3 (human) (UniProt Q9Y616); settings: compound 1.0 µM
# [4] = tested on: KIT (human), P10721 [A829P]; settings: compound 1.0 µM
# [5] = tested on: KIT (human), P10721 [D816V]; settings: compound 1.0 µM
# [6] = tested on: KIT (human), P10721 [L576P]; settings: compound 1.0 µM
# MAP2K7 (human) = MAP2K7 (human) (UniProt O14733); settings: compound 1.0 µM
# MAP3K5 (human) = MAP3K5 (human) (UniProt Q99683); settings: compound 1.0 µM
# MAP3K6 (human) = MAP3K6 (human) (UniProt O95382); settings: compound 1.0 µM
# MAP4K2 (human) = MAP4K2 (human) (UniProt Q12851); settings: compound 1.0 µM
# MAPK1 (human) = MAPK1 (human) (UniProt P28482); settings: compound 1.0 µM
# [7] = tested on: MET (human), P08581 [M1250T]; settings: compound 1.0 µM
# MST4 (human) = MST4 (human) (UniProt Q9P289); settings: compound 1.0 µM
# MYLK4 (human) = MYLK4 (human) (UniProt Q86YV6); settings: compound 1.0 µM
# RIOK2 (human) = RIOK2 (human) (UniProt Q9BVS4); settings: for kinase still bound, per cent of control: compound 1.0 µM
# Sequence of RIOK2 (human) (Q9BVS4 whole entry, looked up): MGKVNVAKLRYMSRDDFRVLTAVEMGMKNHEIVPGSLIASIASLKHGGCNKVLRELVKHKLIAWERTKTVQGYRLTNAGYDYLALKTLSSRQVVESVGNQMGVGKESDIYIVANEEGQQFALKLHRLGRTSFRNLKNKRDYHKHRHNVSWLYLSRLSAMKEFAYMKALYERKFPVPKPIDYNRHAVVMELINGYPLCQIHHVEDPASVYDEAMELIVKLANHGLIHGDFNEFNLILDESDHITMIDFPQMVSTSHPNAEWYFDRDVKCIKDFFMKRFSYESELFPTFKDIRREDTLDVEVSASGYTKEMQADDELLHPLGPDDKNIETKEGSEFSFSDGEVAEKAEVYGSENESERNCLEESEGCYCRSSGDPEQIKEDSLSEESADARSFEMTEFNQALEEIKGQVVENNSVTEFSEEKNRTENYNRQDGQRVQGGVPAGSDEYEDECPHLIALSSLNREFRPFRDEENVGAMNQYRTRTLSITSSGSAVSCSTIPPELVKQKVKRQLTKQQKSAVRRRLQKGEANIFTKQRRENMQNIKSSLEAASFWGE
# SIK2 (human) = SIK2 (human) (UniProt Q9H0K1); settings: compound 1.0 µM
# SIK3 (human) = SIK3 (human) (UniProt Q9Y2K2); settings: compound 1.0 µM
# STK38 (human) = STK38 (human) (UniProt Q15208); settings: compound 1.0 µM
# STK4 (human) = STK4 (human) (UniProt Q13043); settings: compound 1.0 µM
# TIE1 (human) = TIE1 (human) (UniProt P35590); settings: compound 1.0 µM
# TLK2 (human) = TLK2 (human) (UniProt Q86UE8); settings: compound 1.0 µM
# TYRO3 (human) = TYRO3 (human) (UniProt Q06418); settings: compound 1.0 µM
structure (smiles),measurement,setting,value
CN(C)C/C=C/C(=O)Nc1cccc(C(=O)Nc2ccc(Nc3nccc(-c4c(-c5ccccc5)nn5ccccc45)n3)cc2)c1,"kinase still bound, per cent of control",[1],12%
same,"kinase still bound, per cent of control",ACVR1 (human),3.8%
same,"kinase still bound, per cent of control",ACVR1B (human),8.4%
same,"kinase still bound, per cent of control",BMPR1B (human),47%
same,"kinase still bound, per cent of control",[2],21%
same,"kinase still bound, per cent of control",CAMK1D (human),100%
same,"kinase still bound, per cent of control",CAMK1G (human),94%
same,"kinase still bound, per cent of control",CAMK2A (human),100%
same,"kinase still bound, per cent of control",CAMK2G (human),100%
same,"kinase still bound, per cent of control",CDC2L2 (human),32%
same,"kinase still bound, per cent of control",CDK2 (human),100%
same,pKd,CIT (human),7.02
same,"kinase still bound, per cent of control",CIT (human),0.3%
same,"kinase still bound, per cent of control",CLK1 (human),95%
same,"kinase still bound, per cent of control",CSNK1D (human),3.1%
same,"kinase still bound, per cent of control",DYRK1B (human),100%
same,"kinase still bound, per cent of control",[3],76%
same,"kinase still bound, per cent of control",EPHA4 (human),89%
same,"kinase still bound, per cent of control",EPHA8 (human),39%
same,"kinase still bound, per cent of control",EPHB3 (human),86%
same,"kinase still bound, per cent of control",EPHB6 (human),9.4%
same,pKd,ERBB2 (human),6.64
same,"kinase still bound, per cent of control",ERBB2 (human),0.4%
same,"kinase still bound, per cent of control",IKBKE (human),95%
same,"kinase still bound, per cent of control",IRAK3 (human),64%
same,"kinase still bound, per cent of control",[4],71%
same,"kinase still bound, per cent of control",[5],33%
same,"kinase still bound, per cent of control",[6],3%
same,"kinase still bound, per cent of control",MAP2K7 (human),89%
same,"kinase still bound, per cent of control",MAP3K5 (human),100%
same,"kinase still bound, per cent of control",MAP3K6 (human),100%
same,"kinase still bound, per cent of control",MAP4K2 (human),90%
same,"kinase still bound, per cent of control",MAPK1 (human),100%
same,"kinase still bound, per cent of control",[7],70%
same,"kinase still bound, per cent of control",MST4 (human),85%
same,"kinase still bound, per cent of control",MYLK4 (human),100%
same,"kinase still bound, per cent of control",RIOK2 (human),27%
same,"kinase still bound, per cent of control",SIK2 (human),42%
same,"kinase still bound, per cent of control",SIK3 (human),100%
same,"kinase still bound, per cent of control",STK38 (human),97%
same,"kinase still bound, per cent of control",STK4 (human),4.2%
same,"kinase still bound, per cent of control",TIE1 (human),23%
same,"kinase still bound, per cent of control",TLK2 (human),100%
same,"kinase still bound, per cent of control",TYRO3 (human),81%
CN(C)C/C=C/C(=O)Nc1cccc(C(=O)Nc2ccc(Nc3nccc(-c4cccnc4)n3)cc2)c1,"kinase still bound, per cent of control",[1],43%
same,"kinase still bound, per cent of control",ACVR1 (human),70%
same,"kinase still bound, per cent of control",ACVR1B (human),86%
same,"kinase still bound, per cent of control",BMPR1B (human),43%
same,"kinase still bound, per cent of control",[2],60%
same,"kinase still bound, per cent of control",CAMK1D (human),100%
same,"kinase still bound, per cent of control",CAMK1G (human),78%
same,"kinase still bound, per cent of control",CAMK2A (human),100%
same,"kinase still bound, per cent of control",CAMK2G (human),99%
same,"kinase still bound, per cent of control",CDC2L2 (human),74%
same,"kinase still bound, per cent of control",CDK2 (human),100%
same,"kinase still bound, per cent of control",CIT (human),28%
same,"kinase still bound, per cent of control",CLK1 (human),12%
same,"kinase still bound, per cent of control",CSNK1D (human),5.6%
same,"kinase still bound, per cent of control",DYRK1B (human),52%
same,"kinase still bound, per cent of control",[3],80%
same,"kinase still bound, per cent of control",EPHA4 (human),94%
same,"kinase still bound, per cent of control",EPHA8 (human),90%
same,"kinase still bound, per cent of control",EPHB3 (human),96%
same,"kinase still bound, per cent of control",EPHB6 (human),18%
same,"kinase still bound, per cent of control",ERBB2 (human),92%
same,"kinase still bound, per cent of control",IKBKE (human),98%
same,"kinase still bound, per cent of control",IRAK3 (human),20%
same,"kinase still bound, per cent of control",[4],78%
same,"kinase still bound, per cent of control",[5],16%
same,"kinase still bound, per cent of control",[6],2.2%
same,"kinase still bound, per cent of control",MAP2K7 (human),100%
same,"kinase still bound, per cent of control",MAP3K5 (human),100%
same,"kinase still bound, per cent of control",MAP3K6 (human),100%
same,"kinase still bound, per cent of control",MAP4K2 (human),9.9%
same,"kinase still bound, per cent of control",MAPK1 (human),100%
same,"kinase still bound, per cent of control",[7],100%
same,"kinase still bound, per cent of control",MST4 (human),34%
same,"kinase still bound, per cent of control",MYLK4 (human),34%
same,pKd,RIOK2 (human),7.52
same,"kinase still bound, per cent of control",RIOK2 (human),2.2%
same,"kinase still bound, per cent of control",SIK2 (human),51%
same,"kinase still bound, per cent of control",SIK3 (human),100%
same,"kinase still bound, per cent of control",STK38 (human),100%
same,"kinase still bound, per cent of control",STK4 (human),45%
same,"kinase still bound, per cent of control",TIE1 (human),100%
same,"kinase still bound, per cent of control",TLK2 (human),92%
same,"kinase still bound, per cent of control",TYRO3 (human),87%

# Source: the kinase profiling compilation of Christmann-Franck et al. (2016)
